Test results from the NIST ThermoML archive (doi:10.1021/je025625m).

Test: excess molar enthalpy (molar enthalpy of mixing); xn = mol fraction of the nth substance listed
Conditions: 298.15 K, 101 kPa, Liquid

CCCCCCCl [1-chlorohexane] + c1ccccc1
Conditions | excess molar enthalpy [kcal/mol]
x2 = 0.0723 | 0.00146
x2 = 0.0744 | 0.0017
x2 = 0.0805 | 0.00146
x2 = 0.0888 | 0.00167
x2 = 0.1407 | 0.00311
x2 = 0.1427 | 0.00351
x2 = 0.1437 | 0.00351
x2 = 0.2125 | 0.00538
x2 = 0.2862 | 0.00791
x2 = 0.3323 | 0.00992
x2 = 0.394 | 0.0127
x2 = 0.4431 | 0.0156
x2 = 0.5015 | 0.0189
x2 = 0.5375 | 0.0208
x2 = 0.541 | 0.0208
x2 = 0.5524 | 0.0218
x2 = 0.582 | 0.0229
x2 = 0.6153 | 0.0245
x2 = 0.6575 | 0.0256
x2 = 0.7164 | 0.0265
x2 = 0.7288 | 0.0266
x2 = 0.7352 | 0.0262
x2 = 0.7928 | 0.025
x2 = 0.8215 | 0.0242
x2 = 0.8484 | 0.0224
x2 = 0.8629 | 0.0207
x2 = 0.894 | 0.0174
x2 = 0.9274 | 0.0132
x2 = 0.9535 | 0.00918
